Earlier results as cited in US20150157610A1, “PHARMACEUTICAL COMPOSITION FOR TREATING INFLAMMATORY DISEASE” (OSAKA UNIVERSITY, priority 2012, published 2015).

Tested on: fulminant myocarditis
Conditions: experimental, Non Patent Literature 2 and 3

## CCCCCCCCc1ccc(CCC(N)(CO)CO)cc1 [FTY720]
  efficacy against fulminant myocarditis: experimentally effective
